Data set [1] deals with gastrointestinal mucosa. Conditions: male, Wistar, rat, in vivo, 6 h. The procedure:
Gastric lesions induced by administration of the compounds of the invention in the confront of the corresponding drug precursor.
The animals have been sacrificed 6 hours after the administration. The gastrointestinal mucosa has been removed and inspected. The incidence of the gastrointestinal damage has been evaluated as described in experiment F1.

Data set [2] relates to gastrointestinal mucosa. Conditions: rat, in vivo, po.
Data set [3] deals with human endothelial cells of the umbilical vein. The data set is described as follows: Experiment F6: apoptosis (DNA fragmentation) induced in endothelial cells by hydrogen peroxide. The format is cell-based. Conditions: Endothelial cell, products 100 mmoles/l, hydrogen peroxide 200 mmoles/l, 18 hours, read-out: Apoptosis % (respect to the controls treated only with CIP). From the text:
It has been Evaluated the Activity of Some of the Compounds Object of the Present Invention and of the Corresponding Precursor Drugs in Inhibiting DNA Degradation (Apoptosis) in Endothelial Cells Exposed to the Action of Hydrogen Peroxide (HP)
Hydrogen peroxide is a mild oxidant and is considered as an essential mediating agent in pathologies associated with oxidative stress (B. Halliwell, J. Gutteridge “Free Radicals in Biology and Medicine”, page 416, 1993). Therefore the pharmacological activity of compounds to be used under oxidative stress conditions is evaluated through their capability of neutralizing the cytolesive effects of the hydrogen peroxide (B. Halliwell, J. Gutteridge “Free Radicals in Biology and Medicine”, page 416, 1993).
The method described by Herman et Al. (Herman C., Zeiner M. A., Dimmeler S., Arterioscler. Thromb. Vasc. Biol. 17 (12), 3588-82, 1997).
Human endothelial cells of the umbilical vein are prepared according to a standard method. Fresh umbilical veins, just removed, are filled with a solution of collagenase at 0.1% and incubated at 37° C. for 5 minutes.
Subsequently the veins are perfused with medium M 199 (GIBCO, Grand Island, N.Y.) pH 7.4 containing 20% of human serum. The cells are collected from the perfusate by centrifugation at 800 rpm and harvested in culture flasks T-75, pretreated with human fibronectin. […]

For data set [4] the test system is unchanged. Put plainly: Test 2 (CIP): apoptosis (DNA fragmentation) induced by cumene hydroperoxide in endothelial cells. The format is cell-based. Conditions: drug 10^-4 M; CIP 5 mM. The procedure: Test 2 (CIP): Protection parameter of endothelial cell against the oxidative stress induced by cumene hydroperoxide (CIP).
Human endothelial cells of the umbilical vein are prepared according to an usual standard procedure. Fresh umbilical veins are filled with a 0.1% by weight collagenase solution and incubated at 37° C. for 5 minutes.
The cells are collected from the perfusate by centrifugation and harvested in culture flasks T-75, pretreated with human fibronectin. The cells are then harvested in the same medium, further added with 10 ng/ml of bovine hypothalamic growth factor. When the cells of the primary cell culture (i.e. that directly obtained from ex-vivo) form a single layer of confluent cells (about 8,000,000 cells/flask), the culture is stopped and the layers washed and trypsinized. The cellular suspensions are transferred into the wells of a cell culture plate having 24 wells, half of which is then additioned with the same culture medium containing the drug at a 10^−4M concentration, and harvested in a thermostat at 37° C. at a constant moisture. Only the cells coming from said first sub-cultures are used for the experiments with cumene hydroperoxide (CIP).
Before starting the test, the cellular culture medium is removed and the cellular layers are carefully washed with a physiologic solution at a temperature of 37° C. The wells of the culture plate are then incubated for one hour with CIP at a 5 mM concentration in the culture medium. […] 5 replicates for each sample are carried out.
Human endothelial cells of the umbilical vein are prepared according to a standard method. Fresh umbilical veins are filled with a collagenase solution 0.1% by weight and incubated at 37° C. for 5 minutes.
The cells are collected from the perfusate by centrifugation at 800 rpm and harvested in culture flasks T-75, pretreated with human fibronectin. Cells are then harvested in the same medium, added with bovine hypothalamic growth factor (100 ng/ml). When the cells of the primary cell culture (the cells directly removed from ex-vivo umbilical vein) form a single layer of confluent cells (about 8,000,000 cells/flask), harvesting is stopped and the layers are washed and trypsinized. The cellular suspensions are transferred into wells of a culture plate having 24 wells, half of said wells being added with the same culture medium containing the drug at a 10^−4M concentration, and harvested in a thermostat at 37° C. at a constant moisture (90%), CO2=5%. When the drug is not soluble in the culture medium, it is formerly dissolved in a small amount of dimethylsulphoxide. The maximum amount of dimethylsulphoxide which can be added to the culture medium is 0.5%. Only the cells coming from these first subcultures are used for the tests with cumene hydroperoxide (CIP).
Before starting the test, the cellular culture medium is removed and the cellular layers are carefully washed with a standard physiologic solution buffered with phosphate 0.1 M pH 7.0, at the temperature of 37° C. The content of each well is then incubated for one hour with a CIP suspension in the culture medium at a 5 mM concentration. Evaluation of the cellular damage (apoptosis) is carried out by determining the percent variation of the DNA fragmentation in the cultures containing the drug+CIP with respect to the controls treated with CIP only. […] The fluorescence of each sample was determined on 5 replicates. Statistic evaluation has been made with t Student test (p<0.01).

In data set [5] the test system is gastrointestinal mucosa. Conditions: rat, in vivo. The procedure: The animals (rats) are distributed in the following groups (no. 10 animals for group):
• 1° group: treatment: only carrier (aqueous suspension 1% w/v of carboxymethylcellulose, dose: 5 ml/Kg when the drug is administered by os, or a physiologic solution when parenterally administered, i.e. by subcutaneous, intraperitoneal, intravenous or intermuscular route), • 2° group: treatment: carrier as above defined+NEM, B) Groups Treated with the Drug: • group I: treatment: carrier+drug, • group II: treatment: carrier+drug+NEM.
The administration routes are those known for the drug, and can be the oral or subcutaneous, intraperitoneal, intravenous or intramuscular route.
The animals are sacrificed after 24 hours and then one proceeds to the evaluation of the damage to the gastrointestinal mucosa.
Test 1—experimental model in vivo with N-ethylmaleimide (NEM): study of the gastric tolerability of some drugs screened as precursors of the compounds of the invention.
The animals (rats, weight about 200 g) are distributed in the following groups (No. 10 animals for group):
• 1° group: treatment: only carrier (aqueous suspension 1% w/v of carboxymethylcellulose, dose: 5 ml/Kg when the drug is administered by os, physiologic solution when by parenteral route), • 2° group: treatment: carrier+NEM, B) Groups Administered with Each Drug: • group I: treatment: carrier+drug, • group II: treatment: carrier+drug+NEM.
The drug is administered one hour later, in suspension in the carrier. Animals are sacrificed after 24 hours and evaluation of the damage to the gastrointestinal mucosa is made by counting the number of rats, inside each group, with lesions to the stomach at a visual inspection. The total number of said rats is then divided by the total number of rats of the group and multiplied by 100.

The values that follow come from patent US7759392B2, “Pharmaceutical compounds” (Nicox S.A., priority 1999, dated 2010).

Like-named read-outs stand apart in the source and are kept apart here.

As for `CN(CCOC(=O)Cc1ccccc1Nc1c(Cl)cccc1Cl)CCO[N+](=O)[O-]` [Example 14], the Gastropathy % incidence in the data set on gastrointestinal mucosa [1] is reported as 0%; in the data set with gastrointestinal mucosa [2], 20%.

As to `Nc1c2c(nc3ccccc13)CCCC2` [Tacrine, tacrine], the activity at 100000 µM in data set [3] was found to be 8%. In addition, the “inhibition of apoptosis induced by CIP (in words, p<0.01)” value in data set [4] is “do not significantly inhibit apoptosis”. The same compound yielded a Gastropathy % incidence with gastrointestinal mucosa [1] of 60%. Further, in the data set with gastrointestinal mucosa [5], the “Gastro-enteropathy (% incidence) without NEM” value is reported as 0% and the “gastrointestinal damages / gastric lesions in rats treated with NEM + drug (in words)” value is recorded as “showed gastric lesions”.
